Where two headings read alike, the source gives them in different places.
Assays:
HIV-1 IN = target: T1, HIV-1 IN (Human immunodeficiency virus type 1 group M subtype B, UniProt P12497); assay: In vitro IN inhibition assay (3’-processing and strand transfer); assay type: biochemical; conditions: for IC50: Mn2+ cofactor (7.5 mM MnCl2); for IN inhibition (in words): highest concentration tested 100 μM
T1 construct: pre-incubated with purified recombinant IN (at a final concentration of 200 nM); made in house
Protocol: (§1) All compounds were dissolved in DMSO to a final stock concentration of 10 mM and stored at −20 °C. Initial screening for IN inhibitory effect was done at 100 μM and dilutions were made in DMSO. Compounds showing at least 50% inhibition at 100 μM were selected for IC50 determinations. γ-[^32P]-ATP was purchased from Perkin Elmer (Waltham, MA, USA). The expression system for wild-type IN was a generous gift of Dr. Robert Craigie, Laboratory of Molecular Biology, NIDDK, NIH (Bethesda, MD, USA). His-tagged APE1 was purified from an expression system kindly provided by Dr. Tom Curran, Department of Developmental Neurobiology, St. Jude Children’s Research Hospital (Memphis, TN, USA).
(§2) 21-mer oligonucleotides used in IN inhibition assay [21top (5’-[…]-3’) and 21bot (5’-ACTGCTAGAGATTTTCCA CAC-3’)] were purchased from Integrated DNA Technologies (Coralville, IA, USA) and purified by UV shadowing on polyacrylamide gel. The oligonucleotides used in APE1 inhibition assay [top strand: 5′-ATTTCACCGGTACG(F)TCTAGAATC CG-3′ containing the tetrahydrofuran synthetic abasic residue (F), and bottom strand: 3′-TAAAGTGG CCATGC(C)AGATCTTAGGC-5′] were purchased from The Midland Certified Reagent Company (Midland, TX, USA). To analyze the extent of 3’-processing and strand transfer with 5’-end labeled substrates, 21top was 5’-end labeled using T4 polynucleotide kinase (Epicentre, Madison, WI, USA) and [γ-^32P]-ATP (Perkin Elmer, Waltham, MA, USA). The kinase was heat-inactivated at 95 °C and 21bot was added in […]. The reaction mixture was allowed to cool slowly to room temperature, and purified through a spin-25 minicolumn (USA Scientific, Ocala, FL, USA) to separate annealed double-stranded oligonucleotide from unincorporated material. The oligonucleotides used in the APE1 inhibition assay were labeled using a similar protocol.
To determine the extent of 3’-processing and strand transfer, the test compounds, diluted in DMSO, were pre-incubated with purified recombinant IN (at a final concentration of 200 nM) in the reaction buffer [50 mM NaCl, 1 mM HEPES (pH 7.5), 50 μM EDTA, 50 μM dithiothreitol, 10% glycerol (w/v), 7.5 mM MnCl2, 0.1 mg mL–1 bovine serum albumin, 10 mM 2-mercaptoethanol, 10% dimethyl sulfoxide, and 25 mM MOPS (pH 7.2)] at 30 °C for 30 min. For Mg^2+ assay, 7.5 mM MgCl2 was substituted for MnCl2 and an optimal concentration of PEG was included in the reaction buffer. Following the pre-incubation, 20 nM of the 5’-end ^32P-labeled linear oligonucleotide substrate was added to the reaction mixture and incubated for an additional 1 h. Reactions were quenched by addition of 50X loading dye (98% deionized formamide, 10 mM EDTA, 0.025% xylene cyanol, and 0.025 % bromophenol blue). An aliquot was subjected to electrophoresis on a denaturing polyacrylamide gel (0.09 M tris–borate, pH 8.3, 2 mM EDTA, 20% acrylamide, 8M urea). Gels were dried under vacuum, exposed in a PhosphorImager cassette and visualized with a Typhoon 8610 Variable Mode Imager (Amersham Biosciences). Quantification was done with Image Quant 5.2 software. Percent inhibition (%I) was calculated using the following equation: %I = 100 × [1 − (D − C) / (N − C)] where C, N, and D are the fractions of 21-mer substrate converted into 19-mer (product of 3’-processing) or strand-transfer products for DNA alone, DNA plus IN, and DNA, IN plus test compound, respectively. IC50 values were determined by plotting the logarithm of test compound concentrations as a function of %I to obtain the concentration that produced 50% inhibition.

[1] = target: T2, human apurinic/apyrimidinic endonuclease 1 (APE1) (Homo sapiens, UniProt P27695); assay: APE1 inhibition assay; assay type: biochemical
T2 construct: His; made in house
T2 sequence (P27695 whole entry): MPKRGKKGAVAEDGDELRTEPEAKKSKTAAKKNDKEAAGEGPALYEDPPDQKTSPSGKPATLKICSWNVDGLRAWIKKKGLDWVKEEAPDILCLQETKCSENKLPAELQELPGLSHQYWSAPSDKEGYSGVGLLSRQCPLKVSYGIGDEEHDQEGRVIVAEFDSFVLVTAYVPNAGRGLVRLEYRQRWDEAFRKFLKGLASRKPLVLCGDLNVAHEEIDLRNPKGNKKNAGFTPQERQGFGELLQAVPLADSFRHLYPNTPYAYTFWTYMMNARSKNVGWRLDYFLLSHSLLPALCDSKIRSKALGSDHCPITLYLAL
Protocol: as §1, §2
APE1 inhibition assay was performed as previously described. To determine the extent of endonucleolytic cleavage of the abasic residue, the test compounds, diluted in DMSO, were preincubated with recombinant APE1 at a final concentration of 0.05 nM in the reaction buffer [50 mM NaCl, 1 mM HEPES, pH 7.5, 50 μM EDTA, 50 μM dithiothreitol, 10% glycerol (w/v), 7.5 mM MnCl2, 0.1 mg mL‑1 bovine serum albumin, 10 mM 2-mercaptoethanol, 10% DMSO, and 25 mM MOPS, pH 7.2] at 30 °C for 10 min. Following preincubation, 200 nM of the 5′-end ^32P-labeled linear oligonucleotide substrate was added, and incubated for an additional 10 minutes. Reactions were quenched by the addition of an equal volume (16 μL) of loading dye (98% deionized formamide, 10 mM EDTA, 0.025% xylene cyanol, and 0.025% bromophenol blue). An aliquot (5 μL) was electrophoresed on a denaturing 20% polyacrylamide gel (0.09 M tris-borate pH 8.3, 2 mM EDTA, 20% acrylamide, 8 M urea). The gels were dried, exposed in a PhosphorImager cassette and analyzed using a Typhoon 8610 Variable Mode Imager (Amersham Biosciences). Quantification of enzyme inhibition was done using Image Quant 5.2 software. The percent inhibition (% I) was calculated using the following equation: %I = 100 × [1 − (D − C) / (N − C)] where C, N, and D are the fractions of 26-mer substrate converted to 13-mer incision products (or integration products) for DNA alone, DNA plus APE1, and DNA, APE1 plus test compound, respectively. IC50 values were determined by plotting the logarithm of compound concentration as a function of %I to obtain the concentration that produced 50% inhibition. An optimum concentration of APE1 enzyme, at which there is complete conversion of the synthetic abasic-site containing oligonucleotide substrate to its cleaved product without subsequent exonuclease activity, was used in the assay.

[2] = read-out: Inhibition of IN catalytic activity IC50, 3’-Processing
[3] = read-out: Inhibition of IN catalytic activity IC50, Strand Transfer
[4] = read-out: Inhibition of APE1 catalytic activity IC50

Compound | IC50 (HIV-1 IN; [2]) | IC50 (HIV-1 IN; [3]) | IC50 [1, 4] | IN inhibition (in words) (HIV-1 IN) | melting point | IC50 [1]
2-{[5-(2-Hydroxy-3,5-diisopropylbenzylidene)-4-oxo-2-thioxo-1,3-thiazolidin-3-yl]amino}-N-(3,4,5-trimethoxyphenyl)-2-thioxoacetamide [Compound 40] | > 100 µM | 95 µM | > 100 µM |  |  | 
2-{[5-(2-Hydroxy-3,5-diisopropylbenzylidene)-4-oxo-2-thioxo-1,3-thiazolidin-3-yl]amino}-N-(4-hydroxyphenyl)-2-thioxoacetamide [Compound 54] | > 100 µM | > 100 µM | > 100 µM | loss of activity |  | 
2-{[5-(5-Bromo-2-hydroxy-3-methoxybenzylidene)-4-oxo-2-thioxo-1,3-thiazolidin-3-yl]amino}-N-(3,4,5-trimethoxyphenyl)acetamide [Compound 38] | 51 ± 25 µM | 32 ± 11 µM | 65 ± 33 µM |  |  | 
O=C(Nc1ccc(F)cc1)C(=S)NN1C(=O)C(=Cc2ccc(Cl)cc2)SC1=S [Compound 6, 2-{[5-(4-Chlorobenzylidene)-4-oxo-2-thioxo-1,3-thiazolidin-3-yl]amino}-N-(4-fluorophenyl)-2-thioxo-acetamide] | > 100 µM | > 100 µM | > 100 µM |  | 204 to 205 °C | 
O=C(Nc1ccc(Cl)cc1)C(=S)NN1C(=O)C(=Cc2ccc(Cl)cc2)SC1=S [Compound 7, 2-{[5-(4-Chlorobenzylidene)-4-oxo-2-thioxo-1,3-thiazolidin-3-yl]amino}-N-(4-chlorophenyl)-2-thioxo-acetamide] | > 100 µM | > 100 µM |  | lacked any IN inhibitory activity | 211 to 212 °C | 
O=C(Nc1cccc([N+](=O)[O-])c1)C(=S)NN1C(=O)C(=Cc2ccc(Cl)cc2)SC1=S [Compound 8, 2-{[5-(4-Chlorobenzylidene)-4-oxo-2-thioxo-1,3-thiazolidin-3-yl]amino}-N-(3-nitrophenyl)-2-thioxo-acetamide] | > 100 µM | > 100 µM | 76 ± 5 µM | lacked any IN inhibitory activity | 221 to 222 °C | 
COc1ccc(NC(=O)C(=S)NN2C(=O)C(=Cc3ccc(Cl)cc3)SC2=S)cc1 [Compound 9, 2-{[5-(4-Chlorobenzylidene)-4-oxo-2-thioxo-1,3-thiazolidin-3-yl]amino}-N-(4-methoxyphenyl)-2-thioxoacetamide] | 33 µM | 33 µM | 47 ± 2 µM |  | 186 to 187 °C | 
O=C(Nc1ccccc1)C(=S)NN1C(=O)C(=Cc2c[nH]c3ccccc23)SC1=S [Compound 10, 2-{[5-(1H-indol-3-ylmethylene)-4-oxo-2-thioxo-1,3-thiazolidin-3-yl]amino}-N-phenyl-2-thioxo-acetamide] | > 100 µM | > 100 µM | > 100 µM | abolished any activity | 206 to 207 °C | 
Cc1ccc(C(=O)C=C2SC(=S)N(NC(=S)C(=O)Nc3ccccc3)C2=O)cc1 [Compound 11, 2-{5-[2-(4-Methylphenyl)-2-oxoethylidene]-4-oxo-2-thioxo-1,3-thiazolidin-3-yl}amino-N-phenyl-2-thioxoacetamide] | 58 ± 4 µM | 20 ± 6 µM | > 100 µM |  | 147 to 148 °C | 
O=C(Nc1ccc(F)cc1)C(=S)NN1C(=O)C(=Cc2ccc([N+](=O)[O-])o2)SC1=S [Compound 12, N-(4-fluorophenyl)-2-{5-[(5-nitro-2-furyl)methylene]-4-oxo-2-thioxo-1,3-thiazolidin-3-yl}amino-2-thioxoacetamide] | 100 µM | 93 µM | 89 ± 13 µM |  | 155 to 156 °C | 
O=C(Nc1cccc([N+](=O)[O-])c1)C(=S)NN1C(=O)C(=Cc2ccc([N+](=O)[O-])o2)SC1=S [Compound 14, 2-{-5-[(5-Nitro-2-furyl)methylene]-4-oxo-2-thioxo-1,3-thiazolidin-3-yl}amino-N-(3-nitrophenyl)-2-thioxoacetamide] | 58 µM | 58 µM |  |  | 152 to 153 °C | > 100 µM
O=C(Nc1cccc(C(F)(F)F)c1)C(=S)NN1C(=O)C(=Cc2ccc([N+](=O)[O-])o2)SC1=S [Compound 15, 2-{5-[(5-Nitro-2-furyl)methylene]-4-oxo-2-thioxo-1,3-thiazolidin-3-yl}amino-2-thioxo-N-[3-(trifluoro-methyl)phenyl]acetamide] | 61 ± 35 µM | 56 ± 11 µM |  |  | 163 to 164 °C | 
O=C(Nc1cc(C(F)(F)F)cc(C(F)(F)F)c1)C(=S)NN1C(=O)C(=Cc2ccc([N+](=O)[O-])o2)SC1=S [Compound 16, N-[3,5-bis(trifluoromethyl)phenyl]-2-{5-[(5-nitro-2-furyl)methylene]-4-oxo-2-thioxo-1,3-thiazolidin-3-yl}amino-2-thioxoacetamide] | > 100 µM | 74 ± 20 µM | > 100 µM |  | 195 to 196 °C | 
COc1ccc(NC(=O)C(=S)NN2C(=O)C(=Cc3ccc([N+](=O)[O-])o3)SC2=S)cc1OC [Compound 18, N-(3,4-dimethoxyphenyl)-2-{5-[(5-nitro-2-furyl)methylene]-4-oxo-2-thioxo-1,3-thiazolidin-3-yl}amino-2-thioxoacetamide] | 34 ± 10 µM | 14 ± 5 µM | > 100 µM |  | 156 to 157 °C | 
COc1cc(/C=C2/SC(=S)N(NC(=S)C(=O)Nc3cc(C(F)(F)F)cc(C(F)(F)F)c3)C2=O)cc(OC)c1OC [Compound 26, N-[3,5-bis(trifluoromethyl)phenyl]-2-{[4-oxo-2-thioxo-5-(3,4,5-trimethoxybenzylidene)-1,3-thiazol-idin-3-yl]amino}-2-thioxoacetamide] | > 100 µM | > 100 µM |  |  | 187 to 188 °C | 

From PMC6264390, “Design, Synthesis and Structure-activity Studies of Rhodanine Derivatives as HIV-1 Integrase Inhibitors” (Molecules, 2010)
